Results from US20130060020A1, “Compounds useful for treating neurodegenerative disorders” (Satori Pharmaceuticals, Inc., priority 2011, published 2013).
Like-named read-outs stand apart in the source and are kept apart here.

Legend:
[1] = tested on: Aβ 42; assay: % 42 lowering and 40/42 selectivity after dosing in mg/kg (Table 5); format: in vivo
[2] = tested on: Aβ-40; assay: Aβ-40 MSD 3-plex ELISA, conditioned media of 2B7 cells; format: cell-based; conditions: Homo sapiens, 5 hours treatment
Protocol: (§1) Assays were conducted to determine the ability of a Compound of Formula I to modulate […], and Aβ-38.
(§2) Plates with capture antibodies were blocked for 1-2 hours at room temperature with 150 μL of the manufactures blocking reagent.
(§3) Cultured 2B7 cells in 96 well plate with 250 μL of media per well until confluent;
(§4) Prepared serial dilutions of compounds in DMSO at 100× the final desired concentration;
(§5) Washed wells with 2B7 cells 1× with 250 μL of media;
(§6) Diluted DMSO stocks 1:100 into media: • Added 250 μL of media containing compounds (1% DMSO) to wells with 2B7 cells for 5 hours at 37° C.
(§7) ELISA Sample Prep: • Diluted conditioned media: 1 part media with 1% DMSO and 1 part blocking buffer; • 150 μL of the 250 μL of conditioned media were used.
(§8) Prepared per manufacturer's protocol (see above). • Seven point standard curve samples were prepared that contained Aβ-42, Aβ-40, and Aβ-38. The highest concentration of Aβ-42 and Aβ-38 was 3,000 pg/mL and the highest concentration of Aβ-40 was 10,000 pg/mL. Subsequent serial dilutions were 1:3 and the final composition of each sample was 1 part blocking buffer and 1 part cell medium containing 1% DMSO.
(§9) Overnight Sample Incubation: • Blocked plates are washed 5× with MSD wash buffer with a plate washer; • […] and blocker G reagent in MSD blocking solution was added; • 25 μL of samples (1 part conditioned media containing 1% DMSO and 1 part MSD blocking buffer) were then added; • Plates were incubated overnight at 4 degrees C. or 2 hours at room temperature.
(§10) Final Wash and Readout: • Washed wells 5× with MSD wash buffer; • Added 150 μL 2×MSD read buffer; • Read with MSD imager.
(§11) Aβ peptide levels for each peptide were calculated from the standard curve using the MSD software provided with the MSD 2400 Imager. Percent vehicle values for each compound dosage were then calculated and fit to a 4 parameter curve generating IC50 values.
(§12) Conditioned media from 2B7 cells (Mayo) was collected after 5 hours of treatment and diluted with 1 volume of Meso Scale Discovery (MSD, Gaithersburg Md.) blocking buffer (1% BSA in MSD wash buffer). For total Aβ measurements, standard-bind, multi-array single spot 96 well MSD ELISA plates were coated with unlabeled 4G8 capture antibody (Covance, Princeton, N.J.) overnight at 4° C. and then blocked with 5% BSA in MSD wash buffer for 1 hour at room temperature with orbital shaking Diluted 2B7 conditioned media were added to the blocked in-house total Aβ MSD plates with SULFO-TAG 6E10 antibody (MSD). For Aβ38, 40 and 42 measurements, diluted 2B7 conditioned media were added to blocked human (6E10) Aβ 3-Plex plates (MSD). Total Aβ and Aβ 3-Plex plates were incubated for 2 hours at room temperature with orbital shaking followed by washing and reading according to the manufacturer's instructions (SECTOR® Imager 2400, MSD). Aβ concentrations were converted to percent vehicle values and used to construct dose response curves which were fitted to […] using GraphPad Prism version 5.00 for Windows, GraphPad Software, San Diego Calif. USA.

[3] = tested on: Aβ-38; assay: Aβ-38 MSD 3-plex ELISA, conditioned media of 2B7 cells; format: cell-based; conditions: Homo sapiens, 5 hours treatment, read-out: Aβ 38 IC50
Protocol: as §1, §2, §3, §4, §5, §6, §7, §8, §9, §10, §11, §12

[4] = tested on: Aβ-42; assay: Aβ-42 MSD 3-plex ELISA, conditioned media of 2B7 cells; format: cell-based; conditions: Homo sapiens, 5 hours treatment
Protocol: as §1, §2, §3, §4, §5, §6, §7, §8, §9, §10, §11, §12

[5] = inflection of dose response curve, read-out: Aβ 42 DR IC50 Inflection

Structure (SMILES) | %42 lowering 10 hr ([1]; 150 mg/kg) | %42 lowering 24 hr ([1]; 100 mg/kg) | %42 lowering 24 hr ([1]; 150 mg/kg) | %42 lowering 10 hr ([1]; 100 mg/kg) | IC50 ([2]; read-out: Aβ 40 IC50) [nM] | IC50 [3] [nM] | IC50 [4, 5] [nM] | IC50 ([4]; read-out: Aβ 42 IC50) [nM] | IC50 ([2]; inflection of dose response curve, read-out: Aβ 40 DR IC50 Inflection) [nM]
CCO[C@@H]([C@H]1C[C@@H](C)[C@H]2[C@H](O1)[C@H](O)[C@@]1(C)[C@@H]3CC[C@H]4C(C)(C)[C@@H](O[C@H]5CN(CC6CN(C)C6)CCO5)CC[C@@]45C[C@@]35CC[C@]21C)C(C)(C)O [Compound I-5] | A (% 42 lowering of under 15%) |  |  |  |  |  |  |  | 
CCO[C@@H]([C@H]1C[C@@H](C)[C@H]2[C@H](O1)[C@H](O)[C@@]1(C)[C@@H]3CC[C@H]4C(C)(C)[C@@H](O[C@H]5CN(C6CN(C(C)C)C6)CCO5)CC[C@@]45C[C@@]35CC[C@]21C)C(C)(C)O [Compound I-6] | C (% 42 lowering of 21-25%) | E^a (% 42 lowering of greater than 31%) |  |  |  |  |  |  | 
CCO[C@@H]([C@H]1C[C@@H](C)[C@H]2[C@H](O1)[C@H](O)[C@@]1(C)[C@@H]3CC[C@H]4C(C)(C)[C@@H](O[C@H]5CN(C6CN(C7CCC7)C6)CCO5)CC[C@@]45C[C@@]35CC[C@]21C)C(C)(C)O [Compound I-13] | D (% 42 lowering of 26-30%) |  | D (% 42 lowering of 26-30%) |  |  |  |  |  | 
CCO[C@@H]([C@H]1C[C@@H](C)[C@H]2[C@H](O1)[C@H](O)[C@@]1(C)[C@@H]3CC[C@H]4C(C)(C)[C@@H](O[C@H]5CN(CC6CN(CCOC)C6)CCO5)CC[C@@]45C[C@@]35CC[C@]21C)C(C)(C)O [Compound I-20] |  |  |  | A^a (% 42 lowering of under 15%) |  |  |  |  | 
CCO[C@@H]([C@H]1C[C@@H](C)[C@H]2[C@H](O1)[C@H](O)[C@@]1(C)[C@@H]3CC[C@H]4C(C)(C)[C@@H](O[C@H]5CN(C6CN(CC7(C)COC7)C6)CCO5)CC[C@@]45C[C@@]35CC[C@]21C)C(C)(C)O [Compound I-32] |  |  |  |  | 1000 to 5000 | 100 to 500 | 100 to 500 | 100 to 500 | 
CCO[C@@H]([C@H]1C[C@@H](C)[C@H]2[C@H](O1)[C@H](O)[C@@]1(C)[C@@H]3CC[C@H]4C(C)(C)[C@@H](O[C@H]5CN(C6(C)CN(CC7(C)COC7)C6)CCO5)CC[C@@]45C[C@@]35CC[C@]21C)C(C)(C)O [Compound I-34] |  |  |  |  | 1000 to 5000 | 501 to 1000 | 100 to 500 | 100 to 500 | 
CCO[C@@H]([C@H]1C[C@@H](C)[C@H]2[C@H](O1)[C@H](O)[C@@]1(C)[C@@H]3CC[C@H]4C(C)(C)[C@@H](O[C@H]5CN(C6(C)CN(CCOC)C6)CCO5)CC[C@@]45C[C@@]35CC[C@]21C)C(C)(C)O [Compound I-37] |  |  |  |  | 1000 to 5000 | 100 to 500 | < 100 | 100 to 500 | 
CCO[C@@H]([C@H]1C[C@@H](C)[C@H]2[C@H](O1)[C@H](O)[C@@]1(C)[C@@H]3CC[C@H]4C(C)(C)[C@@H](O[C@H]5CN(CC6(O)CN(C)C6)CCO5)CC[C@@]45C[C@@]35CC[C@]21C)C(C)(C)O [Compound I-42] |  |  |  |  | 501 to 1000 | 100 to 500 | < 100 | < 100 | 
CCO[C@@H]([C@H]1C[C@@H](C)[C@H]2[C@H](O1)[C@H](O)[C@@]1(C)[C@@H]3CC[C@H]4C(C)(C)[C@@H](O[C@H]5CN(CC6(O)CN(C7CCC7)C6)CCO5)CC[C@@]45C[C@@]35CC[C@]21C)C(C)(C)O [Compound I-44] |  |  |  |  | 1000 to 5000 | 100 to 500 | < 100 | < 100 | 
CCO[C@@H]([C@H]1C[C@@H](C)[C@H]2[C@H](O1)[C@H](O)[C@@]1(C)[C@@H]3CC[C@H]4C(C)(C)[C@@H](O[C@H]5CN(CC6(O)CN(C7COC7)C6)CCO5)CC[C@@]45C[C@@]35CC[C@]21C)C(C)(C)O [Compound I-45] |  |  |  |  | 1000 to 5000 | 100 to 500 | 100 to 500 | 100 to 500 | 
CCO[C@@H]([C@H]1C[C@@H](C)[C@H]2[C@H](O1)[C@H](O)[C@@]1(C)[C@@H]3CC[C@H]4C(C)(C)[C@@H](O[C@H]5CN(CC6(O)CN(CCOC)C6)CCO5)CC[C@@]45C[C@@]35CC[C@]21C)C(C)(C)O [Compound I-46] |  |  |  |  | 501 to 1000 | 100 to 500 | < 100 | < 100 | 
CCO[C@@H]([C@H]1C[C@@H](C)[C@H]2[C@H](O1)[C@H](O)[C@@]1(C)[C@@H]3CC[C@H]4C(C)(C)[C@@H](O[C@H]5CN(CC6(O)CN(CC(C)(C)O)C6)CCO5)CC[C@@]45C[C@@]35CC[C@]21C)C(C)(C)O [Compound I-47] |  |  |  |  | 1000 to 5000 | 100 to 500 | 100 to 500 | 100 to 500 | 
CCO[C@@H]([C@H]1C[C@@H](C)[C@H]2[C@H](O1)[C@H](O)[C@@]1(C)[C@@H]3CC[C@H]4C(C)(C)[C@@H](O[C@H]5CN(CCN(C)C)CCO5)CC[C@@]45C[C@@]35CC[C@]21C)C(C)(C)O [Compound I-59] |  |  |  |  | 1000 to 5000 | 501 to 1000 | 100 to 500 | 100 to 500 | 
CCO[C@@H]([C@H]1C[C@@H](C)[C@H]2[C@H](O1)[C@H](O)[C@@]1(C)[C@@H]3CC[C@H]4C(C)(C)[C@@H](O[C@H]5CN(CCN6CC(OC)C6)CCO5)CC[C@@]45C[C@@]35CC[C@]21C)C(C)(C)O [Compound I-62] |  |  |  |  | 1000 to 5000 | 501 to 1000 | 100 to 500 | 100 to 500 | 
CCO[C@@H]([C@H]1C[C@@H](C)[C@H]2[C@H](O1)[C@H](O)[C@@]1(C)[C@@H]3CC[C@H]4C(C)(C)[C@@H](O[C@H]5CN(CCN6CC(F)C6)CCO5)CC[C@@]45C[C@@]35CC[C@]21C)C(C)(C)O [Compound I-63] |  |  |  |  | 1000 to 5000 | 501 to 1000 | 100 to 500 | 100 to 500 | 1000 to 5000
CCO[C@@H]([C@H]1C[C@@H](C)[C@H]2[C@H](O1)[C@H](O)[C@@]1(C)[C@@H]3CC[C@H]4C(C)(C)[C@@H](O[C@H]5CN(CC6(O)CN(CCO)C6)CCO5)CC[C@@]45C[C@@]35CC[C@]21C)C(C)(C)O [Compound I-69] |  |  |  |  | 501 to 1000 | 100 to 500 | < 100 | < 100 | 
CCO[C@@H]([C@H]1C[C@@H](C)[C@H]2[C@H](O1)[C@H](O)[C@@]1(C)[C@@H]3CC[C@H]4C(C)(C)[C@@H](O[C@H]5CN(CC6CN(C(CO)CO)C6)CCO5)CC[C@@]45C[C@@]35CC[C@]21C)C(C)(C)O [Compound I-73] |  |  |  |  | 1000 to 5000 | 100 to 500 | 100 to 500 | 100 to 500 | 
CCO[C@@H]([C@H]1C[C@@H](C)[C@H]2[C@H](O1)[C@H](O)[C@@]1(C)[C@@H]3CC[C@H]4C(C)(C)[C@@H](O[C@H]5CN(C6CN(C(CO)CO)C6)CCO5)CC[C@@]45C[C@@]35CC[C@]21C)C(C)(C)O [Compound I-74] |  |  |  |  | 1000 to 5000 | 100 to 500 | 100 to 500 | 100 to 500 | 
